Data on five compounds can be found in ChEMBL document CHEMBL5532665 (J Med Chem, 2024).

Data set [1] has as its target T1, Mu-type opioid receptor (Homo sapiens, UniProt P35372). Put plainly: Agonist activity at human MOR expressed in CHO-K1 cells co-expressing G-alpha15 by calcium mobilization assay. It counts as functional, cell-based. The note with it: cho-k1.
Data set [2] deals with T1, Mu-type opioid receptor. Put plainly: Agonist activity at human MOR expressed in CHO-K1 cells co-expressing G-alpha15 by calcium mobilization assay relative to control. It is filed as functional, cell-based. The note with it: filed as agonist.
The target of data set [3] is T2, Kappa-type opioid receptor (Homo sapiens, UniProt P41145). Briefly: Agonist activity at human KOR expressed in CHO-K1 cells co-expressing G-alpha15 by calcium mobilization assay. To be noted: cho-k1. It counts as functional, cell-based.
Data set [4] has as its target T2, Kappa-type opioid receptor. Put plainly: Agonist activity at human KOR expressed in CHO-K1 cells co-expressing G-alpha15 by calcium mobilization assay relative to control. It counts as functional, cell-based. The note with it: filed as agonist.
Data set [5] concerns the target T3, Delta-type opioid receptor (Homo sapiens, UniProt P41143). Put plainly: Agonist activity at human DOR expressed in CHO-K1 cells co-expressing G-alpha15 by calcium mobilization assay. It is filed as functional, cell-based. The note with it: cho-k1.
Data set [6] addresses T3, Delta-type opioid receptor. Put plainly: Agonist activity at human DOR expressed in CHO-K1 cells co-expressing G-alpha15 by calcium mobilization assay relative to control. The note with it: filed as agonist. It counts as functional, cell-based.
The test system of data set [7] is Mus musculus. Put plainly: Antinociceptive activity in Kunming mouse model assessed as latency of tail withdrawal at 138.9 nmol/kg, sc measured for 10 mins by tail-flick test relative to control. It counts as functional.
Data set [8] has as its system Mus musculus. Briefly: Antinociceptive activity in Kunming mouse model assessed as latency of tail withdrawal at 138.9 nmol/kg, sc measured for 30 mins by tail-flick test relative to control. It is filed as functional. The note with it: 0.5 h.
For data set [9], the system named is Mus musculus. Briefly: Antinociceptive activity in Kunming mouse model assessed as latency of tail withdrawal at 138.9 nmol/kg, sc measured for 60 mins by tail-flick test relative to control. It is filed as functional. To be noted: 1 h.
For data set [10], the system named is Mus musculus. Briefly: Antinociceptive activity in Kunming mouse model assessed as latency of tail withdrawal at 138.9 nmol/kg, sc measured for 120 mins by tail-flick test relative to control. It counts as functional. To be noted: 2 h.
A short description of data set [11]: Stability in mouse plasma assessed as half life at 0.01 mol/L measured for 72 hrs by RP-HPLC analysis. It is filed as ADME, cell-free.
Data set [12] in a line: Selectivity ratio of ED50 for inhibition of gastrointestinal motility in fasted Kunming mouse model treated subcutaneously to ED50 for antinociceptive activity in Kunming mouse model administered subcutaneously measured for 5 to 15 mins by acetic acid-induced writhing test. The note with it: in vivo, route sc, read-out: Ratio ED50. It is filed as toxicity.
A short description of data set [13]: Selectivity ratio of ED50 for inhibition of gastrointestinal motility in fasted Kunming mouse model treated subcutaneously to ED50 for antinociceptive activity in Kunming mouse model administered subcutaneously by tail-flick test. It counts as toxicity. The note with it: in vivo, route sc, read-out: Ratio ED50.
Data set [14] is described as follows: Toxicity in Kunming mouse model assessed as effect on locomotor co-ordination at 139 nmol/kg, sc measured for 10 to 40 mins by rotarod test. It counts as organism-based. The note with it: in vivo, time 10-40 min.
Data set [15] concerns Mus musculus. Briefly: Antinociceptive activity in Kunming mouse model assessed as latency of tail withdrawal at 15007 nmol/kg, sc measured for 10 mins by tail-flick test relative to control. It is filed as functional.
The test system of data set [16] is Mus musculus. Put plainly: Antinociceptive activity in Kunming mouse model assessed as latency of tail withdrawal at 15007 nmol/kg, sc measured for 30 mins by tail-flick test relative to control. It counts as functional. The note with it: 0.5 h.
The test system of data set [17] is Mus musculus. Briefly: Antinociceptive activity in Kunming mouse model assessed as latency of tail withdrawal at 15007 nmol/kg, sc measured for 60 mins by tail-flick test relative to control. It is filed as functional. The note with it: 1 h.
The test system of data set [18] is Mus musculus. Put plainly: Antinociceptive activity in Kunming mouse model assessed as latency of tail withdrawal at 15007 nmol/kg, sc measured for 120 mins by tail-flick test relative to control. It counts as functional. To be noted: 2 h.
Data set [19] has as its system Mus musculus. Put plainly: Antinociceptive activity in Kunming mouse model assessed as latency of tail withdrawal at 164.1 nmol/kg, sc measured for 10 mins by tail-flick test relative to control. It is filed as functional.
The test system of data set [20] is Mus musculus. Briefly: Antinociceptive activity in Kunming mouse model assessed as latency of tail withdrawal at 164.1 nmol/kg, sc measured for 30 mins by tail-flick test relative to control. It is filed as functional. To be noted: 0.5 h.
Data set [21] has as its system Mus musculus. Put plainly: Antinociceptive activity in Kunming mouse model assessed as latency of tail withdrawal at 164.1 nmol/kg, sc measured for 60 mins by tail-flick test relative to control. It counts as functional. To be noted: 1 h.
For data set [22], the system named is Mus musculus. Put plainly: Antinociceptive activity in Kunming mouse model assessed as latency of tail withdrawal at 164.1 nmol/kg, sc measured for 120 mins by tail-flick test relative to control. It counts as functional. The note with it: 2 h.
The nature of data set [23]: Toxicity in Kunming mouse model assessed as effect on locomotor co-ordination at 13.8 nmol/kg, sc measured for 10 to 40 mins by rotarod test. The note with it: in vivo, time 10-40 min. It is filed as organism-based.

T3 sequence (P41143 whole entry): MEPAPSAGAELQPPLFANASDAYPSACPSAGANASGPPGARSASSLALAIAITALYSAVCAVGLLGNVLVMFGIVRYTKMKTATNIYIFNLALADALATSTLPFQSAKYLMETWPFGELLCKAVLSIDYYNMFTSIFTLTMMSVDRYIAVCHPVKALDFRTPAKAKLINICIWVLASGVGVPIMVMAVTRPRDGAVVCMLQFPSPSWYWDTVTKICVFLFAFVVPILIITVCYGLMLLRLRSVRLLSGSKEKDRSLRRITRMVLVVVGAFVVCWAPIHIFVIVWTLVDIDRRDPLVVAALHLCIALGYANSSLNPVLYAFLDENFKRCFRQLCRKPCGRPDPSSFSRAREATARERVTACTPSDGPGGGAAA
T2 sequence (P41145 whole entry): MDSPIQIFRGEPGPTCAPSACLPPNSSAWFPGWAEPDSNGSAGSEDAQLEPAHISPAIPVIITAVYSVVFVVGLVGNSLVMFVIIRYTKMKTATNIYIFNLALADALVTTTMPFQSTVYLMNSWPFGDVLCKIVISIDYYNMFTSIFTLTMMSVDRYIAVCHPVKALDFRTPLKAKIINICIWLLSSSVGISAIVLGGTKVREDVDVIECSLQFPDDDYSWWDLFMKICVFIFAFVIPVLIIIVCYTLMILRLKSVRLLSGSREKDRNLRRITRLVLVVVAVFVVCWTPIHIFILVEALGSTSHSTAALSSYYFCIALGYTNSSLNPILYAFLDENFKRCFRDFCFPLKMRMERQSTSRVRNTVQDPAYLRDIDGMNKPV
T1 sequence (P35372 whole entry): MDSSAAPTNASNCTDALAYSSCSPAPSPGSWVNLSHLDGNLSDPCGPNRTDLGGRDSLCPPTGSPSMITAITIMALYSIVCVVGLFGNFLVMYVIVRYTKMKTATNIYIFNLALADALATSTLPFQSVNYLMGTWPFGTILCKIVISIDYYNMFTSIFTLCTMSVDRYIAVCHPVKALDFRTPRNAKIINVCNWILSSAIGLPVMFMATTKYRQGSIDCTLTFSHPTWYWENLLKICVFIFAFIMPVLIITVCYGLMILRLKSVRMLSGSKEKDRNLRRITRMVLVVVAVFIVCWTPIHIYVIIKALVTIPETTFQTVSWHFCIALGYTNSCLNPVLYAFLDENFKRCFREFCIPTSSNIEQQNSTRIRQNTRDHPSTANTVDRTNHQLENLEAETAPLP

`NC(=O)[C@H]1CCCCN1C(=O)[C@H]1CC(=O)NCCCC[C@@H](NC(=O)[C@@H](N)Cc2ccc(O)cc2)C(=O)NCC(=O)N[C@@H](Cc2ccccc2)C(=O)N1`: the EC50 came out at 4.9 nM at Mu-type opioid receptor [1], 2280 nM in [3] and 0.2 nM in [5]. The results for the Emax (at Mu-type opioid receptor [2]; in data set [4]; in data set [6]) were 99.6%, 68.7% and 95.4%, respectively. Besides, the MPE with Mus musculus [7] amounted to 59.6%; in the data set with Mus musculus [8], 86.8%; in the data set with Mus musculus [9], 61.4%; in the data set with Mus musculus [10], 26.7%.
With `CN1C(=O)CNC(=O)[C@H](NC(=O)[C@@H](N)Cc2ccc(O)cc2)CCCCNC(=O)C[C@@H](C(=O)N2CCC[C@@H]2C(N)=O)NC(=O)[C@@H]1Cc1ccccc1`, the values for the concentration giving a half-maximal response (EC50) (at Mu-type opioid receptor [1]; in data set [3]; in [5]) were 2.5 nM, 505 nM and 17.5 nM, respectively. Further, in [11], the half-life at 0.01 mol/L is 21.1 h. In addition, the selectivity ratio was determined as 13 in data set [12] and 54 in data set [13]. For the same compound, the Activity entry in data set [14] is listed as “Non-Toxic”.
For `NC(=O)CNC(=O)[C@@H]1CC(=O)NCCCC[C@@H](NC(=O)[C@@H](N)Cc2ccc(O)cc2)C(=O)NCC(=O)N[C@@H](Cc2ccccc2)C(=O)N1`, the MPE was 73.4% in the data set on Mus musculus [15], 92.5% in the data set with Mus musculus [16], 74.1% in the data set on Mus musculus [17] and 43.1% in the data set on Mus musculus [18].
Consider `NC(=O)[C@@H]1CC(=O)NCCCC[C@@H](NC(=O)[C@@H](N)Cc2ccc(O)cc2)C(=O)NCC(=O)N[C@@H](Cc2ccccc2)C(=O)N1`, for which the MPE in the data set with Mus musculus [19] was 70.7%; with Mus musculus [20], 95.4%; with Mus musculus [21], 71.9%; in the data set on Mus musculus [22] it was 43.8%.
On to `NC(=O)[C@H]1CCCN1C(=O)[C@@H]1CC(=O)NCCCC[C@@H](NC(=O)[C@@H](N)Cc2ccc(O)cc2)C(=O)NCC(=O)N[C@@H](Cc2ccc(F)cc2)C(=O)N1`, for which the EC50 on Mu-type opioid receptor [1] came to 0.9 nM; in data set [3], 92.2 nM; in data set [5], 0.6 nM. Also, the half-life at 0.01 mol/L in data set [11] was 53.5 h. For the same compound, the selectivity ratio is 22 in data set [12] and 55 in data set [13]. The Activity result in [23] is reported as “Non-Toxic”.
